Data: patent US20230021483A1, “[…] […] METHOD AND CLASSIFICATION OF PHARMACEUTICAL COMPONENTS BY USING TRANSCRIPTOMES” (National Institutes of Biomedical Innovation, Health and …, priority 2016, published 2023)

How the values were obtained:
Format in all cases: in vivo, C57BL/6 mice
[1] = system: inguinal lymph nodes (LN); assay: Whole organ transcriptome (GeneChip microarray) of draining inguinal lymph nodes 6 h after adjuvant administration: sDEGs, gene modules, hierarchical clustering; as to adjuvant group (cluster) in LN: key: G1 (interferon signaling); G2 (metabolism of lipids and lipoproteins); G3 (response to stress); G4 (response to wounding); G5 (phosphate-containing compound metabolic process); G6 (phagosome)
LV, SP and LNs = assay: Whole organ transcriptome across organs (adjuvant gene space): gene responses and adjuvant grouping; settings: hierarchical clustering; LV, SP and/or LNs
[2] = system: preferentially upregulated genes in LV, SP, LN; assay: Z-score-based differential gene expression analysis (adjuvant group- or adjuvant-associated genes, 40 module mapping, TargetMine annotation); settings: for Adar 1425405_a_at (Group G1, Modules 20) / Adar 1434268_at (Group G1, Modules 20) / Ddx58 1436562_at (Group G1, Modules 20) / Ddx58 1456890_at (Group G1, Modules 20) / Eif2ak2 1422005_at (Group G1, Modules 20) / G3bp2 1421323_a_at (Group G1, Modules 20) / Gm9706///Isg15 1431591_s_at (Group G1, Modules 20) / H2-T10///H2-T22///H2-T9 1449875_s_at (Group G1, Modules 20) / Ifih1 1426276_at (Group G1, Modules 20) / Ifit1 1450783_at (Group G1, Modules 20) / Ifit3 1449025_at (Group G1, Modules 20) / Irf7 1417244_a_at (Group G1, Modules 20) / Irgm1 1418825_at (Group G1, Modules 20) / Mndal 1426906_at (Group G1, Modules 20) / Pml 1448757_at (Group G1, Modules 20) / Pml 1456103_at (Group G1, Modules 20) / Rnf213 1455500_at (Group G1, Modules 20) / Rsad2 1436058_at (Group G1, Modules 20) / Shisa5 1423986_a_at (Group G1, Modules 20) / Shisa5 1437503_a_at (Group G1, Modules 20) / Stat1 1450033_a_at (Group G1, Modules 20) / Stat1 1450034_at (Group G1, Modules 20) / Tdrd7 1426716_at (Group G1, Modules 20) / Tor1aip2 1418115_s_at (Group G1, Modules 20) / Tor1aip2 1418116_at (Group G1, Modules 20) / Tor1aip2 1435526_at (Group G1, Modules 20) / Trim12a 1437432_a_at (Group G1, Modules 20) / Uba7 1426970_a_at (Group G1, Modules 20): LV
Method in brief: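 Per-sample fold-change values converted to gene-wise z-scores within each organ's data set, then triplicate z-scores summed per adjuvant. Genes with summed score >3 taken as preferentially expressed; gene groups defined by combined per-adjuvant z-score thresholds (z>1 to z>3) specific to each organ.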

## Cc1ccc2c(=O)c3cccc(CC(=O)O)c3oc2c1C [DMXAA, 5,6-dimethylxanthenone-4-acetic acid]
[1]; LN, 6 h
  module M40^LN (immune system process; dendritic cells, macrophages, neutrophils, stromal cells): strongly induced
[1]; hierarchical clustering, lymph node
  adjuvant group (cluster) in LN: G1
[1]; i.d. administration, lymph node, fold change <0.667, p<0.01, customized PA call=1, 6 h after adjuvant
  Number of gene probes with statistically significant changes (sDEGs), LN, Down: 261
[1]; i.d. administration, lymph node, fold change >1.5, p<0.01, customized PA call=1, 6 h after adjuvant
  Number of gene probes with statistically significant changes (sDEGs), LN, Up: 1342
LV, SP and LNs
  adjuvant group (cluster) within the adjuvant gene space: group (G) 1
[2]; ID, LN, Modules 26
  z sum, 1428027_at LOC100653389: −2.22
[2]; ID, LN, Modules 27
  z sum, 1419721_at Niacr1: −1.88
[2]; ID, LN, Modules 29
  z sum, 1418424_at Tnfaip6: −1.91
  z sum, 1419534_at Olr1: −1.6
  z sum, 1421457_a_at Samsn1: −2.04
  z sum, 1422305_at Ifnb1: −1.99
  z sum, 1423028_at Ifna2: −2.04
  z sum, 1425837_a_at Ccrn4l: −1.85
  z sum, 1436387_at C330006P03Rik///Homer1: −2.24
  z sum, 1439349_at Sbno2: −1.84
  z sum, 1444010_at Eif4e: −1.94
  z sum, 1448325_at Ppp1r15a: −1.63
  z sum, 1449311_at Bach1: −1.97
  z sum, 1450297_at Il6: −1.88
  z sum, 1455197_at Rnd1: −1.86
  z sum, 1455899_x_at Socs3: −1.79
[2]; ID, LN, Modules 34
  z sum: −2.09
  z sum, 1417252_at Ptgs2: −1.55
  z sum, 1417263_at Ptgs2: −1.77
  z sum, 1421473_at Il1a: −1.71
[2]; ID, LN, Modules 35
  z sum, 1439981_at Tespa1: −1.8
  z sum, 1441843_s_at 5230400M03Rik: −2.25
  z sum, 1442556_at ---: −2.03
  z sum, 1443414_at C78513: −2.02
  z sum, 1444598_at ---: −2
  z sum, 1445534_at ---: −2
  z sum, 1446245_at ---: −2.34
  z sum, 1457944_at ---: −2.16
  z sum, 1458376_at B930025B16Rik: −2.11
  z sum, 1459144_at ---: −2.06
[2]; ID, LN, Modules 36
  z sum, 1425687_at Cflar: −1.76
  z sum, 1427736_a_at Ccrl2: −2.22
  z sum, 1449169_at Has2: −2.25
  z sum, 1453636_at Pcgf5: −2.11
  z sum, 1457888_at ---: −2.02
[2]; ID, LN, Modules 37
  z sum, 1419508_at Ripk1: −2.04
  z sum, 1421578_at Ccl4: −1.85
  z sum, 1421679_a_at Cdkn1a: −1.99
  z sum, 1424638_at Cdkn1a: −1.71
  z sum, 1433508_at Klf6: −1.54
  z sum, 1434350_at Csrnp1: −1.99
  z sum, 1439680_at Tnfsf10: −2.27
  z sum, 1448724_at Cish: −1.56
  z sum, 1451340_at Arid5a: −2.28
  z sum, 1453851_a_at Gadd45g: −2
  z sum, 1457404_at Nfkbiz: −2.06
  z sum, 1458589_at ---: −1.59
[2]; ID, LN, Modules 40
  z sum, 1422054_a_at 5kil: −1.69
  z sum, 1428735_at Cd69: −2.42
[2]; ID, sample x1
  Adar 1425405_a_at (Group G1, Modules 20): 2.03
  Adar 1434268_at (Group G1, Modules 20): 2.15
  Ddx58 1436562_at (Group G1, Modules 20): 2.07
  Ddx58 1456890_at (Group G1, Modules 20): 1.67
  Eif2ak2 1422005_at (Group G1, Modules 20): 1.36
  G3bp2 1421323_a_at (Group G1, Modules 20): 1.32
  Gm9706///Isg15 1431591_s_at (Group G1, Modules 20): 1.28
  H2-T10///H2-T22///H2-T9 1449875_s_at (Group G1, Modules 20): 1.27
  Ifih1 1426276_at (Group G1, Modules 20): 1.25
  Ifit1 1450783_at (Group G1, Modules 20): 2.21
  Ifit3 1449025_at (Group G1, Modules 20): 1.39
  Irf7 1417244_a_at (Group G1, Modules 20): 1.05
  Irgm1 1418825_at (Group G1, Modules 20): 1.39
  Mndal 1426906_at (Group G1, Modules 20): 1.42
  Pml 1448757_at (Group G1, Modules 20): 1.62
  Pml 1456103_at (Group G1, Modules 20): 2.18
  Rnf213 1455500_at (Group G1, Modules 20): 1.79
  Rsad2 1436058_at (Group G1, Modules 20): 1.56
  Shisa5 1423986_a_at (Group G1, Modules 20): 2.03
  Shisa5 1437503_a_at (Group G1, Modules 20): 2.12
  Stat1 1450033_a_at (Group G1, Modules 20): 1.5
  Stat1 1450034_at (Group G1, Modules 20): 1.53
  Tdrd7 1426716_at (Group G1, Modules 20): 1.6
  Tor1aip2 1418115_s_at (Group G1, Modules 20): 2.45
  Tor1aip2 1418116_at (Group G1, Modules 20): 2.19
  Tor1aip2 1435526_at (Group G1, Modules 20): 2.23
  Trim12a 1437432_a_at (Group G1, Modules 20): 1.82
  Uba7 1426970_a_at (Group G1, Modules 20): 1.81
[2]; ID, sample x2
  Adar 1425405_a_at (Group G1, Modules 20): 1.5
  Adar 1434268_at (Group G1, Modules 20): 1.52
  Ddx58 1436562_at (Group G1, Modules 20): 1.54
  Ddx58 1456890_at (Group G1, Modules 20): 1.93
  Eif2ak2 1422005_at (Group G1, Modules 20): 1.3
  G3bp2 1421323_a_at (Group G1, Modules 20): 1.22
  Gm9706///Isg15 1431591_s_at (Group G1, Modules 20): 1.39
  H2-T10///H2-T22///H2-T9 1449875_s_at (Group G1, Modules 20): 1.64
  Ifih1 1426276_at (Group G1, Modules 20): 1.09
  Ifit1 1450783_at (Group G1, Modules 20): 1.54
  Ifit3 1449025_at (Group G1, Modules 20): 1.3
  Irf7 1417244_a_at (Group G1, Modules 20): 1.18
  Irgm1 1418825_at (Group G1, Modules 20): 1.33
  Mndal 1426906_at (Group G1, Modules 20): 1.19
  Pml 1448757_at (Group G1, Modules 20): 1.35
  Pml 1456103_at (Group G1, Modules 20): 1.34
  Rnf213 1455500_at (Group G1, Modules 20): 1.2
  Rsad2 1436058_at (Group G1, Modules 20): 1.25
  Shisa5 1423986_a_at (Group G1, Modules 20): 1.81
  Shisa5 1437503_a_at (Group G1, Modules 20): 1.62
  Stat1 1450033_a_at (Group G1, Modules 20): 1.73
  Stat1 1450034_at (Group G1, Modules 20): 1.96
  Tdrd7 1426716_at (Group G1, Modules 20): 1.74
  Tor1aip2 1418115_s_at (Group G1, Modules 20): 1.52
  Tor1aip2 1418116_at (Group G1, Modules 20): 1.92
  Tor1aip2 1435526_at (Group G1, Modules 20): 1.48
  Trim12a 1437432_a_at (Group G1, Modules 20): 1.56
  Uba7 1426970_a_at (Group G1, Modules 20): 1.59
[2]; ID, sample x3
  Adar 1425405_a_at (Group G1, Modules 20): 0.93
  Adar 1434268_at (Group G1, Modules 20): 0.92
  Ddx58 1436562_at (Group G1, Modules 20): 1.31
  Ddx58 1456890_at (Group G1, Modules 20): 1.56
  Eif2ak2 1422005_at (Group G1, Modules 20): 0.68
  G3bp2 1421323_a_at (Group G1, Modules 20): 0.71
  Gm9706///Isg15 1431591_s_at (Group G1, Modules 20): 0.8
  H2-T10///H2-T22///H2-T9 1449875_s_at (Group G1, Modules 20): 0.51
  Ifih1 1426276_at (Group G1, Modules 20): 0.78
  Ifit1 1450783_at (Group G1, Modules 20): 1.04
  Ifit3 1449025_at (Group G1, Modules 20): 0.74
  Irf7 1417244_a_at (Group G1, Modules 20): 1
  Irgm1 1418825_at (Group G1, Modules 20): 0.79
  Mndal 1426906_at (Group G1, Modules 20): 0.73
  Pml 1448757_at (Group G1, Modules 20): 0.83
  Pml 1456103_at (Group G1, Modules 20): 0.34
  Rnf213 1455500_at (Group G1, Modules 20): 0.97
  Rsad2 1436058_at (Group G1, Modules 20): 0.44
  Shisa5 1423986_a_at (Group G1, Modules 20): 1.42
  Shisa5 1437503_a_at (Group G1, Modules 20): 1.72
  Stat1 1450033_a_at (Group G1, Modules 20): 1.15
  Stat1 1450034_at (Group G1, Modules 20): 1.16
  Tdrd7 1426716_at (Group G1, Modules 20): 1.09
  Tor1aip2 1418115_s_at (Group G1, Modules 20): 0.98
  Tor1aip2 1418116_at (Group G1, Modules 20): 1.37
  Tor1aip2 1435526_at (Group G1, Modules 20): 1.01
  Trim12a 1437432_a_at (Group G1, Modules 20): 1.11
  Uba7 1426970_a_at (Group G1, Modules 20): 1.21
[2]; LN, z-scores and 40 module mapping
  preferentially induced biological process relative to adjuvants targeting the same receptor: preferentially induced RNA processing and gene expression responses more than cdiGMP or cGAMP
[2]; z-score selected genes, TargetMine and IPA upstream cytokine analyses
  adjuvant group-associated biological features: strongly associated with type I and type II interferon responses
